Patent publication US12391737B2, “Soluble NPY2 receptor agonists” (Boehringer Ingelheim International GmbH, priority 2020, dated 2025)

What was measured:
Solubility determination = settings: for Sol6: pH 6; for Sol7: pH 7
Procedure, shortened: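 First, TFA-salt peptide was added to 0.1 M sodium diphosphate (pH 6.4 or 7.0) to 10 mg/ml and shaken 2 h at room temperature. Next, insoluble material was filtered off. Finally, filtrate and control, each 1 mg/ml in 50% acetonitrile, were compared by reversed-phase chromatography.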

[1] = molecular target: T1, Human Neuropeptide Y2 Receptor (Homo sapiens, UniProt P49146); test: Radioligand binding competition assay (RLB); settings: Table 3, 125I-PYY(1-36) competition; read-out: Ki
T1 construct: purchased CHEMICON HTS066M
T1 sequence (P49146 1-381): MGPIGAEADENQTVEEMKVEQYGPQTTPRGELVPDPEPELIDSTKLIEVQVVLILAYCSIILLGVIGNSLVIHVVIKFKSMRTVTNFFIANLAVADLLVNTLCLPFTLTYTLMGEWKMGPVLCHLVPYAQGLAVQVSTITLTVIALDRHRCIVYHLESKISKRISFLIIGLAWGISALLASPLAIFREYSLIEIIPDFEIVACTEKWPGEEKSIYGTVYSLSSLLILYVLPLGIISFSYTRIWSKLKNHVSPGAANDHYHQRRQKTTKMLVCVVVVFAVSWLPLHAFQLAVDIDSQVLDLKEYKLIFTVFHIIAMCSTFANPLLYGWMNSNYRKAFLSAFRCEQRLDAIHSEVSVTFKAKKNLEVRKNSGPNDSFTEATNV
Procedure, shortened: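 Peptides were serially diluted from 1 mM DMSO stocks and competed for radioligand binding to receptor membranes (0.5 μg/well) over 2 h at room temperature, pH 7.4 HEPES buffer. Bound radioactivity on filters was counted by scintillation, and IC50 was derived by nonlinear regression.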

Row | Sol6 (Solubility determination) [mg/mL] | Sol7 (Solubility determination) [mg/mL] | Ki [1] [nM] | SMILES
1 | >10.0 | >10.0 | 1.38 | CC[C@H](C)[C@H](NC(=O)[C@H](CCC(=O)O)NC(=O)[C@H](CCC(=O)O)NC(=O)[C@@H]1CCCN1C(=O)[C@H](CCC(=O)O)NC(=O)[C@H](C)NC(=O)[C@H](CC(=O)O)NC(=O)[C@H](C)NC(=O)[C@H](CCC(=O)O)NC(=O)[C@@H]1CCCN1C(=O)[C@H](CCCCNC(=O)CCCCCNC(=O)CC[C@H](NC(=O)CCCCCCCCCCCCCCCCC(=O)O)C(=O)O)NC(=O)[C@H](C)NC(=O)[C@@H]1CCCN1C(=O)[C@H](C)NC(=O)CC(C)C)C(=O)N[C@@H](CCC(N)=O)C(=O)N[C@@H](CCCNC(=N)N)C(=O)N[C@@H](Cc1ccc(O)cc1)C(=O)N[C@@H](Cc1ccc(O)cc1)C(=O)N[C@H](C(=O)N[C@@H](CO)C(=O)N[C@@H](CC(C)C)C(=O)N[C@@H](CCCNC(=N)N)C(=O)N[C@@H](Cc1c[nH]cn1)C(=O)N[C@@H](Cc1ccc(O)cc1)C(=O)N[C@@H](Cc1ccc(O)cc1)C(=O)N[C@@H](CC(N)=O)C(=O)N[C@@H](Cc1c[nH]c2ccccc12)C(=O)N[C@@H](CC(C)C)C(=O)N[C@H](C(=O)N[C@@H](CCCNC(=N)N)C(=O)N[C@@H](CCC(N)=O)C(=O)N[C@@H](CCCNC(=N)N)C(=O)N[C@@H](Cc1ccc(O)cc1)C(N)=O)[C@@H](C)O)C(C)C [Compound 198, N{alpha-4}-(3-methylbutanoyl)-N{epsilon-7}-(6-[(4S)-4-carboxy-4-(17-carboxyheptadecanamido)butanamido]hexanoyl)-[4A,6A,7K,9E,10A,13E,17I,18Q,22V,28Y,30W,31L]-hPYY(4-36)]
2 | 9.8 | 5.7 | 1.01 | CC[C@H](C)[C@H](NC(=O)[C@H](Cc1ccc(O)cc1)NC(=O)[C@H](Cc1ccc(O)cc1)NC(=O)[C@H](CCCNC(=N)N)NC(=O)[C@H](CCC(N)=O)NC(=O)[C@H](CC(C)C)NC(=O)[C@H](CCC(=O)O)NC(=O)[C@H](CCC(=O)O)NC(=O)[C@@H]1CCCN1C(=O)[C@@H](NC(=O)[C@H](C)NC(=O)[C@H](CC(=O)O)NC(=O)[C@H](C)NC(=O)[C@H](CCC(=O)O)NC(=O)[C@@H]1CCCN1C(=O)[C@H](CCCCNC(=O)CCCCCNC(=O)CC[C@H](NC(=O)CCCCCCCCCCCCCCCCC(=O)O)C(=O)O)NC(=O)[C@H](CCC(=O)O)NC(=O)[C@@H]1CCCN1C(=O)[C@H](C)NC(=O)CC(C)C)[C@@H](C)O)C(=O)N[C@@H](C)C(=O)N[C@@H](CC(C)C)C(=O)N[C@@H](CCCNC(=N)N)C(=O)N[C@@H](Cc1c[nH]cn1)C(=O)N[C@@H](Cc1ccc(O)cc1)C(=O)N[C@@H](Cc1ccc(O)cc1)C(=O)N[C@@H](CC(N)=O)C(=O)N[C@@H](Cc1c[nH]c2ccccc12)C(=O)N[C@@H](CC(C)C)C(=O)N[C@H](C(=O)N[C@@H](CCCNC(=N)N)C(=O)N[C@@H](CCC(N)=O)C(=O)N[C@@H](CCCNC(=N)N)C(=O)N[C@@H](Cc1ccc(O)cc1)C(N)=O)[C@@H](C)O [Compound 100, N{alpha-4}-(3-methylbutanoyl)-N{epsilon-7}-(6-[(4S)-4-carboxy-4-(17-carboxyheptadecanamido)butanamido]hexanoyl)-[4A,7K,9E,10A,13T,18Q,22I,23A,28Y,30W,31L]-hPYY(4-36)]
3 | 9.6 | 9.7 | 2.59 | CC(C)CC(=O)N[C@@H](C)C(=O)N1CCC[C@H]1C(=O)N[C@@H](CCC(=O)O)C(=O)N[C@@H](CCCCNC(=O)CCCCCNC(=O)CC[C@H](NC(=O)CCCCCCCCCCCCCCCCC(=O)O)C(=O)O)C(=O)N1CCC[C@H]1C(=O)N[C@@H](CCC(=O)O)C(=O)N[C@@H](CCC(=O)O)C(=O)N[C@@H](CC(=O)O)C(=O)N[C@@H](C)C(=O)N[C@H](C(=O)N1CCC[C@H]1C(=O)N[C@@H](CCC(=O)O)C(=O)N[C@@H](CCC(=O)O)C(=O)N[C@@H](CC(C)C)C(=O)N[C@@H](CCC(N)=O)C(=O)N[C@@H](CCCNC(=N)N)C(=O)N[C@@H](Cc1ccc(O)cc1)C(=O)N[C@@H](Cc1ccc(O)cc1)C(=O)N[C@H](C(=O)N[C@@H](CCC(N)=O)C(=O)N[C@@H](CC(C)C)C(=O)N[C@@H](CCCNC(=N)N)C(=O)N[C@@H](Cc1c[nH]cn1)C(=O)N[C@@H](Cc1ccc(O)cc1)C(=O)N[C@@H](Cc1ccc(O)cc1)C(=O)N[C@@H](CC(N)=O)C(=O)N[C@@H](Cc1c[nH]c2ccccc12)C(=O)N[C@@H](CC(C)C)C(=O)N[C@H](C(=O)N[C@@H](CCCNC(=N)N)C(=O)N[C@@H](CCC(N)=O)C(=O)N[C@@H](CCCNC(=N)N)C(=O)N[C@@H](Cc1ccc(O)cc1)C(N)=O)[C@@H](C)O)C(C)C)[C@@H](C)O [Compound 51, N{alpha-4}-(3-methylbutanoyl)-N{epsilon-7}-(6-[(4S)-4-carboxy-4-(17-carboxyheptadecanamido)butanamido]hexanoyl)-[4A,7K,9E,13T,18Q,22V,23Q,28Y,30W,31L]-hPYY(4-36)]
4 | 9.7 | 9.6 | 106 | CC(C)CC(=O)N[C@@H](C)C(=O)N1CCC[C@H]1C(=O)N[C@@H](CCC(=O)O)C(=O)N[C@@H](CCCCNC(=O)CCCCCNC(=O)CC[C@H](NC(=O)CCCCCCCCCCCCCCCCC(=O)O)C(=O)O)C(=O)N1CCC[C@H]1C(=O)N[C@@H](CCC(=O)O)C(=O)N[C@@H](CCC(=O)O)C(=O)N[C@@H](CC(=O)O)C(=O)N[C@@H](CCC(=O)O)C(=O)N[C@H](C(=O)N1CCC[C@H]1C(=O)N[C@@H](CCC(=O)O)C(=O)N[C@@H](CCC(=O)O)C(=O)N[C@@H](CC(C)C)C(=O)N[C@@H](CCC(N)=O)C(=O)N[C@@H](CCCNC(=N)N)C(=O)N[C@@H](Cc1ccc(O)cc1)C(=O)N[C@@H](Cc1ccc(O)cc1)C(=O)N[C@H](C(=O)N[C@@H](CO)C(=O)N[C@@H](CC(C)C)C(=O)N[C@@H](CCCNC(=N)N)C(=O)N[C@@H](Cc1c[nH]cn1)C(=O)N[C@@H](Cc1ccc(O)cc1)C(=O)N[C@@H](Cc1ccc(O)cc1)C(=O)N[C@@H](CC(N)=O)C(=O)N[C@@H](Cc1c[nH]c2ccccc12)C(=O)N[C@@H](CC(C)C)C(=O)N[C@H](C(=O)N[C@@H](CCCNC(=N)N)C(=O)N[C@@H](CCC(N)=O)C(=O)N[C@@H](CCCNC(=N)N)C(=O)N[C@@H](Cc1ccc(O)cc1)C(N)=O)[C@@H](C)O)C(C)C)[C@@H](C)O [Compound 8, N{alpha-4}-(3-methylbutanoyl)-N{epsilon-7}-(6-[(4S)-4-carboxy-4-(17-carboxyheptadecanamido)butanamido]hexanoyl)[4A,7K,9E,12E,13T,18Q,22V,28Y,30W,31L]-hPYY(4-36)]
5 | >10.0 | >10.0 | 3.97 | CC[C@H](C)[C@H](NC(=O)[C@H](CCC(=O)O)NC(=O)[C@H](CCC(=O)O)NC(=O)[C@@H]1CCCN1C(=O)[C@H](CC(C)C)NC(=O)[C@H](C)NC(=O)[C@H](CC(=O)O)NC(=O)[C@H](CCC(=O)O)NC(=O)[C@H](CCC(=O)O)NC(=O)[C@@H]1CCCN1C(=O)[C@H](CCCCNC(=O)CCCCCNC(=O)CC[C@H](NC(=O)CCCCCCCCCCCCCCCCC(=O)O)C(=O)O)NC(=O)[C@H](CCC(=O)O)NC(=O)[C@@H]1CCCN1C(=O)[C@H](C)NC(=O)CC(C)C)C(=O)N[C@@H](CCC(N)=O)C(=O)N[C@@H](CCCNC(=N)N)C(=O)N[C@@H](Cc1ccc(O)cc1)C(=O)N[C@@H](Cc1ccc(O)cc1)C(=O)N[C@H](C(=O)N[C@@H](CO)C(=O)N[C@@H](CC(C)C)C(=O)N[C@@H](CCCNC(=N)N)C(=O)N[C@@H](Cc1c[nH]cn1)C(=O)N[C@@H](Cc1ccc(O)cc1)C(=O)N[C@@H](Cc1ccc(O)cc1)C(=O)N[C@@H](CC(N)=O)C(=O)N[C@@H](Cc1c[nH]c2ccccc12)C(=O)N[C@@H](CC(C)C)C(=O)N[C@H](C(=O)N[C@@H](CCCNC(=N)N)C(=O)N[C@@H](CCC(N)=O)C(=O)N[C@@H](CCCNC(=N)N)C(=O)N[C@@H](Cc1ccc(O)cc1)C(N)=O)[C@@H](C)O)C(C)C [Compound 142, N{alpha-4}-(3-methylbutanoyl)-N{epsilon-7}-(6-[(4S)-4-carboxy-4-(17-carboxyheptadecanamido)butanamido]hexanoyl)-[4A,7K,9E,13L,17I,18Q,22V,28Y,30W,31L]-hPYY(4-36)]
6 | 0.0 | 9.5 | 4.58 | CC[C@H](C)[C@H](NC(=O)[C@H](CCC(=O)O)NC(=O)[C@H](CCC(=O)O)NC(=O)[C@@H]1CCCN1C(=O)[C@H](CCC(=O)O)NC(=O)[C@H](C)NC(=O)[C@H](C)NC(=O)[C@H](CCC(=O)O)NC(=O)[C@H](CCC(=O)O)NC(=O)[C@@H]1CCCN1C(=O)[C@H](CCCCNC(=O)CCCCCNC(=O)CC[C@H](NC(=O)CCCCCCCCCCCCCCCCC(=O)O)C(=O)O)NC(=O)[C@H](C)NC(=O)[C@@H]1CCCN1C(=O)[C@H](C)NC(=O)CC(C)C)C(=O)N[C@@H](CCC(N)=O)C(=O)N[C@@H](CCCNC(=N)N)C(=O)N[C@@H](Cc1ccc(O)cc1)C(=O)N[C@@H](Cc1ccc(O)cc1)C(=O)N[C@H](C(=O)N[C@@H](C)C(=O)N[C@@H](CC(C)C)C(=O)N[C@@H](CCCNC(=N)N)C(=O)N[C@@H](Cc1c[nH]cn1)C(=O)N[C@@H](Cc1ccc(O)cc1)C(=O)N[C@@H](Cc1ccc(O)cc1)C(=O)N[C@@H](CC(N)=O)C(=O)N[C@@H](Cc1c[nH]c2ccccc12)C(=O)N[C@@H](CC(C)C)C(=O)N[C@H](C(=O)N[C@@H](CCCNC(=N)N)C(=O)N[C@@H](CCC(N)=O)C(=O)N[C@@H](CCCNC(=N)N)C(=O)N[C@@H](Cc1ccc(O)cc1)C(N)=O)[C@@H](C)O)C(C)C [Compound 167, N{alpha-4}-(3-methylbutanoyl)-N{epsilon-7}-(6-[(4S)-4-carboxy-4-(17-carboxyheptadecanamido)butanamido]hexanoyl)-[4A,6A,7K,9E,11A,13E,17I,18Q,22V,23A,28Y,30W,31L]-hPYY(4-36)]
